Measured values taken from patent publication US11673933B2, “Method for using insulin degludec for the improvement of glycemic control and reduction of acute and long-term diabetes complications” (Novo Nordisk A/S, priority 2016, dated 2023).

Key:
[1] = test system: human subjects with type 2 diabetes inadequately controlled with basal insulin and metformin; conditions: in vivo
Method: (§2) A 26-week randomised, parallel two-arm, double-blind, multi-centre, multinational, treat-to-target trial in 413 human subjects with type 2 diabetes inadequately controlled with basal insulin and metformin with or without SU or glinides was carried out comparing the efficacy and safety of insulin degludec+liraglutide (Xultophy®, IDegLira) once daily with insulin degludec (Tresiba®, IDeg) once daily both added on to metformin. […] The secondary objective was to compare the overall efficacy and safety parameters of IDegLira and IDeg after 26 weeks of treatment. All trial endpoints were collected and assessed throughout the entire duration of the trial.
(§3) Eligible subjects were randomised 1:1 to either once daily IDegLira or once daily IDeg, both in combination with metformin. […] For each subject, the duration of the trial was to be approximately 29 weeks: up to 2 weeks between screening and first treatment, 26 weeks of treatment and at least 1 week of wash-out at the end of the trial.
(§4) The IDegLira dosing unit is defined as a dose step. One (1) IDegLira dose step consists of 1 unit insulin degludec and 0.036 mg liraglutide. Treatment with IDegLira was initiated at 16 dose steps containing 16 units insulin degludec and 0.6 mg liraglutide. Adjustment of the IDegLira dose was performed twice weekly based on the mean of 3 preceding daily fasting SMPG values on 3 consecutive days. Adjustments occurred in 2 dose steps aiming at a fasting glycaemic target of 4.0-5.0 mmol/L (72-90 mg/dL). The maximum allowed dose was 50 dose steps (50 units IDeg/1.8 mg liraglutide). IDeg treatment was initiated with 16 units, and titrated twice weekly to the fasting glycaemic target of 4.0-5.0 mmol/L (72-90 mg/dL) based on the mean fasting SMPG from 3 proceeding measurements as described for IDegLira. The maximum allowed dose was 50 units.
(§5) Subjects received IDegLira or IDeg by subcutaneous administration in addition to metformin. IDegLira or IDeg was injected subcutaneously in the thigh, upper arm (deltoid region) or abdomen once daily preferably at the same time every day. The injection area chosen were to remain unchanged throughout the trial, but rotation within the area was recommended.

[2] = test system: human subjects with type 2 diabetes inadequately controlled with basal insulin and metformin; experiment: Example 4: 26-week double-blind trial, IDegLira vs IDeg, both added to metformin
Method: as §2, §3, §4, §5

[3] = test system: individuals with type 2 diabetes and established cardiovascular risk (MACE); experiment: CV risk model based on the DEVOTE trial: MACE hazard ratio IDeg/IGlar by CV risk score and subgroup; type: in vivo, human
Method: (§1) A long-term, multi-centre, multi-national, randomised, double-blind, parallel-group, active comparator-controlled trial with 7637 human subjects was carried out with treatment that would continue until at least 633 positively adjudicated primary cardiovascular events were accrued. This trial concerned incidence of cardiovascular events in adult human subjects with type 2 diabetes that were at high risk for cardiovascular events, including such subjects with existing cardiovascular disease. The primary objective of this trial was to confirm the cardiovascular safety of insulin degludec compared to that of insulin glargine. The secondary objective was to assess efficacy of insulin degludec on markers of glycaemic control and to assess safety on other parameters in subjects with type 2 diabetes that were at high risk for cardiovascular events.
The results of this trial may be presented herein as a number or fraction of subjects experiencing an event. Alternatively, the results of this trial may be presented with hazard ratios estimated in a Cox proportional hazard model, which is the standard statistical model used for estimating time to an event. The term “hazard ratio” (also referred to as “HR”) as used herein means the instantaneous risk ratio of experiencing an event when administered insulin degludec compared to insulin glargine which are the two treatments in this trial. An upper limit of the 95% confidence interval (CI) for the HR of less than 1.00 means that the estimated treatment ratio between insulin degludec and insulin glargine with respect to the event of interests is statistically significant in favour of insulin degludec on a 5% significance level. A 5% significance level is the standard level for investigating significance in clinical trials.
Based on the DEVOTE trial, a cardiovascular (CV) risk score has been developed for individuals with established cardiovascular risk. This risk score was developed using available medical history, baseline information and cardiovascular events occurring during the trial. […] The variables are listed in descending order according to their impact on the overall risk of major adverse cardiovascular events (MACE), here consisting of cardiovascular death, non-fatal myocardial infarction, or non-fatal stroke. The combination of these variables yields an algorithm that can be used to determine the risk of future MACEs and to determine the benefit of being treated with IDeg compared to IGlar.
The CV risk score and estimated MACE hazard ratio for CV risk scores by quartiles based on number of events are presented in FIG. 1. […] This benefit is seen regardless of which of the individual predictors contribute to the high score.
For example, subjects with a BMI ≥30 kg/m^2 and diastolic blood pressure ≥80 mmHg, and subjects with a diastolic blood pressure ≥80 mmHg who were treated with statins would have a benefit with IDeg compared to IGlar in terms of risk of MACE (Table 25).

[4] = test system: adult human subjects with type 2 diabetes at high risk for cardiovascular events; experiment: Example 1 cardiovascular outcomes trial (DEVOTE), insulin degludec vs insulin glargine: SMPG and blood pressure variability; type: in vivo
Method: as §1
Subjects were randomised 1:1 in a double-blinded manner to receive blinded insulin degludec or blinded insulin glargine, each added to standard of care. […] For subjects receiving premixed/biphasic insulin OD, the basal component was calculated and transferred unit-to-unit to investigational product OD. The bolus insulin component was calculated and transferred unit-to-unit to bolus insulin and given at the most appropriate meal at the investigator's discretion. For subjects receiving premixed/biphasic insulin twice daily (or more), the total basal component was calculated, reduced by 20-30% and transferred to investigational product OD; the bolus component was to be calculated and transferred to insulin aspart and dosed with the most appropriate meals at the investigator's discretion. […]
Subjects adjusted their basal insulin dose weekly, aiming for a pre-breakfast (fasting) SMPG value of 71-90 mg/dL (4.0-5.0 mmol/L) by using the algorithm in Table 6. The basal dose was adjusted based on the lowest of three pre-breakfast SMPG values, preferably measured two days prior to dose adjustment and on the day of the dose adjustment. […]

N^εB29-(N^α-(HOOC(CH2)14CO)-γ-Glu) desB30 human insulin [IDeg]
Adverse event and tolerability profiles [1]: consistent with previous findings | ΔHeart rate [1]: −0.6 bpm | Free fatty acids ([2]; Baseline): 0.5 mmol/L | HDL cholesterol ([2]; Baseline): 1.2 mmol/L | LDL cholesterol ([2]; Baseline): 2.4 mmol/L | Total cholesterol ([2]; Baseline): 4.6 mmol/L | Triglycerides ([2]; Baseline): 1.8 mmol/L | VLDL cholesterol ([2]; Baseline): 0.8 mmol/L | Free fatty acids ([2]; End of trial (26 weeks)): 0.4 mmol/L | HDL cholesterol ([2]; End of trial (26 weeks)): 1.2 mmol/L | LDL cholesterol ([2]; End of trial (26 weeks)): 2.4 mmol/L | Total cholesterol ([2]; End of trial (26 weeks)): 4.5 mmol/L | Triglycerides ([2]; End of trial (26 weeks)): 1.6 mmol/L | VLDL cholesterol ([2]; End of trial (26 weeks)): 0.7 mmol/L | ΔDiastolic blood pressure ([2]; change from baseline, 26 weeks): −0.7 mmHG | ΔSystolic blood pressure ([2]; change from baseline, 26 weeks): −1.7 mmHG | HR (MACE, IDeg/IGlar) ([3]; CV risk score High): 1.04 | HR (MACE, IDeg/IGlar) ([3]; CV risk score Low): 1.02 | HR (MACE, IDeg/IGlar) ([3]; CV risk score Moderate): 0.89 | HR (MACE, IDeg/IGlar) ([3]; CV risk score Very High): 0.67 | hazard ratio IDeg/IGlar (risk of MACE) ([3]; patients who have a high CV risk score): < 1 | Estimate (risk of MACE, IDeg compared to IGlar) ([3]; subgroup: Age 65-75 years AND systolic blood pressure < 140 mmHg): 0.70 | Estimate (risk of MACE, IDeg compared to IGlar) ([3]; subgroup: Age < 65 years AND diastolic blood pressure ≥ 80 mmHg): 0.64 | Estimate (risk of MACE, IDeg compared to IGlar) ([3]; subgroup: Age < 65 years AND treated with statins): 0.75 | Estimate (risk of MACE, IDeg compared to IGlar) ([3]; subgroup: BMI ≥ 30 kg/m^2 AND diastolic blood pressure ≥ 80 mmHg): 0.68 | Estimate (risk of MACE, IDeg compared to IGlar) ([3]; subgroup: Diastolic blood pressure < 90 mmHg AND HDL ≥ 1.0 mmol/L): 0.80 | Estimate (risk of MACE, IDeg compared to IGlar) ([3]; subgroup: Diastolic blood pressure ≥ 80 mmHg AND treated with statins): 0.73 | Estimate (risk of MACE, IDeg compared to IGlar) ([3]; subgroup: Diastolic blood pressure ≥ 80 mmHg AND triglycerides > 1.7 mmol/L): 0.69 | Estimate (risk of MACE, IDeg compared to IGlar) ([3]; subgroup: Established CV risk AND HDL ≥ 1.0 mmol/L): 0.78 | Estimate (risk of MACE, IDeg compared to IGlar) ([3]; subgroup: Established CV risk AND diastolic blood pressure ≥ 80 mmHg): 0.76 | Estimate (risk of MACE, IDeg compared to IGlar) ([3]; subgroup: Established CV risk AND pulse ≥ 70 bpm): 0.80 | Estimate (risk of MACE, IDeg compared to IGlar) ([3]; subgroup: Height <170 cm AND treated with statins): 0.75 | Estimate (risk of MACE, IDeg compared to IGlar) ([3]; subgroup: Non-White AND diastolic blood pressure < 90 mmHg): 0.64 | Estimate (risk of MACE, IDeg compared to IGlar) ([3]; subgroup: Not Hispanic or Latino AND Non-White): 0.64 | Estimate (risk of MACE, IDeg compared to IGlar) ([3]; subgroup: Not Hispanic or Latino AND triglycerides > 1.7 mmol/L): 0.79 | Estimate (risk of MACE, IDeg compared to IGlar) ([3]; subgroup: Previous smoker AND age < 65 years): 0.73 | Estimate (risk of MACE, IDeg compared to IGlar) ([3]; subgroup: Previous smoker AND cholesterol ≥ 3 mmol/L): 0.79 | Estimate (risk of MACE, IDeg compared to IGlar) ([3]; subgroup: Previous smoker AND diastolic blood pressure ≥ 80 mmHg): 0.66 | Estimate (risk of MACE, IDeg compared to IGlar) ([3]; subgroup: Previous smoker AND treated with statins): 0.79 | Estimate (risk of MACE, IDeg compared to IGlar) ([3]; subgroup: Previous smoker AND triglycerides > 1.7 mmol/L): 0.73 | Estimate (risk of MACE, IDeg compared to IGlar) ([3]; subgroup: Pulse ≥ 70 bpm AND diastolic blood pressure ≥ 80 mmHg): 0.74 | Estimate (risk of MACE, IDeg compared to IGlar) ([3]; subgroup: Pulse ≥ 70 bpm AND triglycerides > 1.7 mmol/L): 0.76 | Estimate (risk of MACE, IDeg compared to IGlar) ([3]; subgroup: Pulse ≥ 70 mmHg AND treated with statins): 0.72 | Estimate (risk of MACE, IDeg compared to IGlar) ([3]; subgroup: Systolic blood pressure <140 mmHg AND HDL ≥ 1.0 mmol/L): 0.73 | Estimate (risk of MACE, IDeg compared to IGlar) ([3]; subgroup: Triglycerides > 1.7 mmol/L AND HDL ≥ 1.0 mmol/L): 0.69 | Estimate (risk of MACE, IDeg compared to IGlar) ([3]; subgroup: Triglycerides > 1.7 mmol/L AND treated with statins): 0.78 | Systolic Blood Pressure variability, Rate [4]: 0.94 | 8PP SMPG - Within-day variability, Rate ([4]; relative fluctuation of 8-point profile, log scale ANOVA): 0.98 | Pre-breakfast SMPG - between-day variability, Rate ([4]; variances analysed on log scale, ANOVA): 0.90
